Experiments:
HL-60 cells = experiment: Effect of TPA in a human promyelocytic leukemia cell line (HL-60); assay type: cell-based; conditions: 10, 20 or 100 ng/ml
Protocol: 1. Effect of TPA in a Human Promyelocytic Leukemia Cell Line (HL-60):
HL-60 cells at 2×10^6 cells/ml were treated with TPA. The final concentrations of TPA were 10, 20, or 100 ng/ml. The ethanol content was less than 0.01%.

B16 tumor cells = experiment: Tumor growth inhibition in mice injected with B16 tumor cells; assay type: in vivo, C57 mice; conditions: statistically different from control
Protocol: Effect of TPA in Mice Injected with B16 Tumor Cells:
Four groups of C57 mice were used in the experiment. Each group contained 7 mice and one group was untreated. Each C57 mouse was injected with 0.2 ml of supernatant of a 1:6 w/v homogenate of B16 cells at the under-arm position. On the third day, each treatment group was given TPA i.p. at 50, 100 or 200 μg/kg/d for 8 days.

[1] = test system: S180 (Sarcoma 180) tumor cells; experiment: Tumor growth inhibition in mice injected with S180 (Sarcoma 180) tumor cells; assay type: in vivo, Kwen-Ming mice
Protocol: Effect of TPA in Mice Injected With S180 (Sarcoma 180) Tumor Cells:
Eight groups of Kwen-Ming mice containing 7 mice per group were used in the following experiment. Two groups were untreated and six groups received the drug.
Each Kwen-Ming mouse was injected with 5×10^6 S180 cells at the under-arm position. After 24 or 72 h, the animals were given TPA i.p. or locally at the tumor site. The injected doses of TPA were 50, 100 and 200 μg/kg/d for 7 days. The animals were sacrificed 24 hrs after the final TPA treatment and the tumors were weighed to calculate the extent of the tumor growth inhibition.

[2] = test system: skin and the mucous membrane; conditions: cited from earlier work

CCCCCCCCCCCCCC(=O)O[C@@H]1[C@@H](C)[C@@]2(O)[C@@H](C=C(CO)C[C@]3(O)C(=O)C(C)=C[C@@H]23)[C@@H]2C(C)(C)[C@]12OC(C)=O [TPA, Phorbol 12-Myristate-13-Acetate]
differentiation to macrophages (HL-60 cells; after 4-6 days): the majority of the cells were induced to differentiate to macrophages in a dose-dependent manner
cell aggregation and attachment (HL-60 cells; after 3 hours): cell aggregation and attachment to the dish were observed
proliferation of HL-60 cells (HL-60 cells; after 3 hours): stopped proliferating
morphological changes (HL-60 cells; after 48 h): there were morphological changes
rate of inhibition of tumor growth (B16 tumor cells; i.p. 50 μg/kg/d for 8 days): 40.0%
rate of inhibition of tumor growth (B16 tumor cells; i.p. 100 μg/kg/d for 8 days): 59.4%
rate of inhibition of tumor growth (B16 tumor cells; i.p. 200 μg/kg/d for 8 days): 32.1%
tumor cell differentiation (pathological studies) ([1]; after TPA treatment): the tumor cells were differentiated
inhibition of tumor growth ([1]; i.p. 50 μg/kg daily for 7 days): 41.7%
inhibition of tumor growth ([1]; i.p. 100 μg/kg daily for 7 days): 54.8%
inhibition of tumor growth ([1]; i.p. 200 μg/kg daily for 7 days): 30.4%
inhibition of tumor growth ([1]; locally at tumor site, 50 μg/kg daily for 7 days): 35.5%
inhibition of tumor growth ([1]; locally at tumor site, 100 μg/kg daily for 7 days): 49.3%
inhibition of tumor growth ([1]; locally at tumor site, 200 μg/kg daily for 7 days): 59.2%
harm on oral ingestion [2]: harmful if ingested orally
irritant to skin [2]: highly potent irritant to skin

Reference: patent publication US6063814A, “Phorbol esters as anti-neoplastic and white blood cell elevating agents” (priority 1997, dated 2000)
